Measurements taken from US20250144067A1, “PERSONALIZED STARVATION THERAPY FOR CANCER” (Faeth Therapeutics, Inc., priority 2021, published 2025).
Where a name gives a salt, the structure may show the parent alone.

Tested on: NCI-H292 lung cancer cells
Assay: FDA drug screening, complete media vs cholesterol-free media without statin (TABLE 1)
Type: cell-based, human
Conditions: Complete minus Cholesterol-free; greater than 0 enhanced anti-cancer activity, about 0 neutral, below 0 antagonists

SMILES | Difference
O=C(O)CCNC(=O)c1ccccc1 [Betamipron] | −1.00
COc1ccc(CCNCC(O)COc2cccc(C)c2)cc1OC (stereo not shown) [Bevantolol (hydrochloride)] | −0.52
CC(C)(Oc1ccc(CCNC(=O)c2ccc(Cl)cc2)cc1)C(=O)O [Bezafibrate] | −0.60

Same assay, conditions: NCI-H292 cells in cholesterol-free media without statin

SMILES | Cholesterol-free
O=C(O)CCNC(=O)c1ccccc1 [Betamipron] | 1.952
COc1ccc(CCNCC(O)COc2cccc(C)c2)cc1OC (stereo not shown) [Bevantolol (hydrochloride)] | 1.227
CC(C)(Oc1ccc(CCNC(=O)c2ccc(Cl)cc2)cc1)C(=O)O [Bezafibrate] | 1.652

Same assay, conditions: NCI-H292 cells in complete media

SMILES | Complete
O=C(O)CCNC(=O)c1ccccc1 [Betamipron] | 0.9561
COc1ccc(CCNCC(O)COc2cccc(C)c2)cc1OC (stereo not shown) [Bevantolol (hydrochloride)] | 0.7079
CC(C)(Oc1ccc(CCNC(=O)c2ccc(Cl)cc2)cc1)C(=O)O [Bezafibrate] | 1.053

Same assay, conditions: NCI-H292 cells, cholesterol-free media without statin

SMILES | Cholesterol-free
COc1cc2c3cc1Oc1c(OC)c(OC)cc4c1[C@@H](Cc1ccc(O)c(c1)Oc1ccc(cc1)C[C@@H]3N(C)CC2)N(C)CC4 [Berbamine (dihydrochloride)] | 1.782
Nc1ncc2ncn(CC3(OCP(=O)(O)O)CC3)c2n1 [Besifovir] | 1.23
CC(C)C[C@H](NC(=O)[C@@H](O)[C@H](N)Cc1ccccc1)C(=O)O [Bestatin (hydrochloride)] | 1.217
CC(C)C[C@H](NC(=O)[C@@H](O)[C@H](N)Cc1ccccc1)C(=O)O [Bestatin] | 1.255
CNCCc1ccccn1 [Betahistine (dihydrochloride)] | 1.528
CNCCc1ccccn1.CS(=O)(=O)O.CS(=O)(=O)O [Betahistine (mesylate)] | 1.235
O=C(NCc1c(F)cc(F)cc1F)c1cn2c(c(O)c1=O)C(=O)N1[C@H]3CC[C@H](C3)O[C@@H]1C2 [Bictegravir] | 1.057
COC(=O)c1cc(OC)c2c(c1-c1c(C(=O)OC)cc(OC)c3c1OCO3)OCO2 [Bifendate] | 1.494
c1ccc(-c2ccc(C(c3ccccc3)n3ccnc3)cc2)cc1 (stereo not shown) [Bifonazole] | 1.572

Same assay, conditions: NCI-H292 cells, cholesterol-free media without statin, FDA drug library screen

SMILES | Cholesterol-free
CC(C[N+](C)(C)C)OC(N)=O.[Cl-] (stereo not shown) [Bethanechol (chloride)] | 1.24
COc1ccc(NC(=O)c2ccc(C(=N)N(C)C)cc2)c(C(=O)Nc2ccc(Cl)cn2)c1 [Betrixaban] | 0.6104
COC(=O)c1cc(OC)c2c(c1-c1c(CO)cc(OC)c3c1OCO3)OCO2 [Bicyclol] | 0.552

Same assay, conditions: NCI-H292 cells, complete media

SMILES | Complete
COc1cc2c3cc1Oc1c(OC)c(OC)cc4c1[C@@H](Cc1ccc(O)c(c1)Oc1ccc(cc1)C[C@@H]3N(C)CC2)N(C)CC4 [Berbamine (dihydrochloride)] | 1.401
Nc1ncc2ncn(CC3(OCP(=O)(O)O)CC3)c2n1 [Besifovir] | 0.9121
CC(C)C[C@H](NC(=O)[C@@H](O)[C@H](N)Cc1ccccc1)C(=O)O [Bestatin (hydrochloride)] | 0.9083
CC(C)C[C@H](NC(=O)[C@@H](O)[C@H](N)Cc1ccccc1)C(=O)O [Bestatin] | 0.8191
CNCCc1ccccn1 [Betahistine (dihydrochloride)] | 1.139
CNCCc1ccccn1.CS(=O)(=O)O.CS(=O)(=O)O [Betahistine (mesylate)] | 0.8713
O=C(NCc1c(F)cc(F)cc1F)c1cn2c(c(O)c1=O)C(=O)N1[C@H]3CC[C@H](C3)O[C@@H]1C2 [Bictegravir] | 0.7123
COC(=O)c1cc(OC)c2c(c1-c1c(C(=O)OC)cc(OC)c3c1OCO3)OCO2 [Bifendate] | 1.156
c1ccc(-c2ccc(C(c3ccccc3)n3ccnc3)cc2)cc1 (stereo not shown) [Bifonazole] | 1.228

Same assay, conditions: NCI-H292 cells, complete media, FDA drug library screen

SMILES | Complete
CC(C[N+](C)(C)C)OC(N)=O.[Cl-] (stereo not shown) [Bethanechol (chloride)] | 1.407
COc1ccc(NC(=O)c2ccc(C(=N)N(C)C)cc2)c(C(=O)Nc2ccc(Cl)cn2)c1 [Betrixaban] | 1.062
COC(=O)c1cc(OC)c2c(c1-c1c(CO)cc(OC)c3c1OCO3)OCO2 [Bicyclol] | 0.7456

Same assay, conditions: complete vs cholesterol-free media; >0 enhanced anti-cancer activity, about 0 neutral, <0 antagonist

SMILES | Difference
CC(C[N+](C)(C)C)OC(N)=O.[Cl-] (stereo not shown) [Bethanechol (chloride)] | 0.17
COc1ccc(NC(=O)c2ccc(C(=N)N(C)C)cc2)c(C(=O)Nc2ccc(Cl)cn2)c1 [Betrixaban] | 0.45
COC(=O)c1cc(OC)c2c(c1-c1c(CO)cc(OC)c3c1OCO3)OCO2 [Bicyclol] | 0.19

Same assay, conditions: complete vs cholesterol-free media; […]

SMILES | Difference
COc1cc2c3cc1Oc1c(OC)c(OC)cc4c1[C@@H](Cc1ccc(O)c(c1)Oc1ccc(cc1)C[C@@H]3N(C)CC2)N(C)CC4 [Berbamine (dihydrochloride)] | −0.38
COC(=O)c1cc(OC)c2c(c1-c1c(C(=O)OC)cc(OC)c3c1OCO3)OCO2 [Bifendate] | −0.34

Same assay, conditions: complete vs cholesterol-free media; greater than 0 enhanced anti-cancer activity, about 0 neutral, below 0 antagonists

SMILES | Difference
Nc1ncc2ncn(CC3(OCP(=O)(O)O)CC3)c2n1 [Besifovir] | −0.32
CC(C)C[C@H](NC(=O)[C@@H](O)[C@H](N)Cc1ccccc1)C(=O)O [Bestatin (hydrochloride)] | −0.31
CC(C)C[C@H](NC(=O)[C@@H](O)[C@H](N)Cc1ccccc1)C(=O)O [Bestatin] | −0.44
CNCCc1ccccn1 [Betahistine (dihydrochloride)] | −0.39
CNCCc1ccccn1.CS(=O)(=O)O.CS(=O)(=O)O [Betahistine (mesylate)] | −0.36
O=C(NCc1c(F)cc(F)cc1F)c1cn2c(c(O)c1=O)C(=O)N1[C@H]3CC[C@H](C3)O[C@@H]1C2 [Bictegravir] | −0.34
c1ccc(-c2ccc(C(c3ccccc3)n3ccnc3)cc2)cc1 (stereo not shown) [Bifonazole] | −0.34

Tested on: NCI-H292 lung cancer cells
Assay: FDA drug screening, complete media vs cholesterol-free media with simvastatin (TABLE 2)
Type: cell-based, human
Conditions: NCI-H292 cells, FDA drug library screen, cholesterol-free media with simvastatin 0.04 μM

SMILES | Cholesterol-free media + simvastatin (0.04 μM)
COc1cc2c3cc1Oc1c(OC)c(OC)cc4c1[C@@H](Cc1ccc(O)c(c1)Oc1ccc(cc1)C[C@@H]3N(C)CC2)N(C)CC4 [Berbamine (dihydrochloride)] | 0.2857
CC(C)C[C@H](NC(=O)[C@@H](O)[C@H](N)Cc1ccccc1)C(=O)O [Bestatin (hydrochloride)] | 1.299
COC(=O)c1cc(OC)c2c(c1-c1c(C(=O)OC)cc(OC)c3c1OCO3)OCO2 [Bifendate] | 1.269
c1ccc(-c2ccc(C(c3ccccc3)n3ccnc3)cc2)cc1 (stereo not shown) [Bifonazole] | 0.4379

Same assay, conditions: NCI-H292 cells, FDA drug library screen, complete media

SMILES | Complete Media
COc1cc2c3cc1Oc1c(OC)c(OC)cc4c1[C@@H](Cc1ccc(O)c(c1)Oc1ccc(cc1)C[C@@H]3N(C)CC2)N(C)CC4 [Berbamine (dihydrochloride)] | 1.04
c1ccc(-c2ccc(C(c3ccccc3)n3ccnc3)cc2)cc1 (stereo not shown) [Bifonazole] | 0.7844

Same assay, conditions: NCI-H292 cells, FDA library drug in cholesterol-free media with simvastatin 0.04 μM

SMILES | Cholesterol-free media + simvastatin (0.04 μM)
CC(C)C[C@H](NC(=O)[C@@H](O)[C@H](N)Cc1ccccc1)C(=O)O [Bestatin] | 1.263
CC(C[N+](C)(C)C)OC(N)=O.[Cl-] (stereo not shown) [Bethanechol (chloride)] | 1.34
COc1ccc(NC(=O)c2ccc(C(=N)N(C)C)cc2)c(C(=O)Nc2ccc(Cl)cn2)c1 [Betrixaban] | 1.424
COc1ccc(CCNCC(O)COc2cccc(C)c2)cc1OC (stereo not shown) [Bevantolol (hydrochloride)] | 1.404
COC(=O)c1cc(OC)c2c(c1-c1c(CO)cc(OC)c3c1OCO3)OCO2 [Bicyclol] | 1.331

Same assay, conditions: NCI-H292 cells, FDA library drug in complete media

SMILES | Complete Media
CC(C)C[C@H](NC(=O)[C@@H](O)[C@H](N)Cc1ccccc1)C(=O)O [Bestatin] | 0.9917
CC(C[N+](C)(C)C)OC(N)=O.[Cl-] (stereo not shown) [Bethanechol (chloride)] | 0.9882
COc1ccc(NC(=O)c2ccc(C(=N)N(C)C)cc2)c(C(=O)Nc2ccc(Cl)cn2)c1 [Betrixaban] | 0.7486
COc1ccc(CCNCC(O)COc2cccc(C)c2)cc1OC (stereo not shown) [Bevantolol (hydrochloride)] | 0.952
COC(=O)c1cc(OC)c2c(c1-c1c(CO)cc(OC)c3c1OCO3)OCO2 [Bicyclol] | 1.025

Same assay, conditions: NCI-H292 cells, cholesterol-free media with simvastatin 0.04 μM; FDA drug library screen (TABLE 2)

SMILES | Cholesterol-free media + simvastatin (0.04 μM)
CNCCc1ccccn1.CS(=O)(=O)O.CS(=O)(=O)O [Betahistine (mesylate)] | 1.015
CC(C)(Oc1ccc(CCNC(=O)c2ccc(Cl)cc2)cc1)C(=O)O [Bezafibrate] | 1.03

Same assay, conditions: NCI-H292 cells, cholesterol-free media with simvastatin 0.04 μM; cell growth value in FDA drug screen

SMILES | Cholesterol-free media + simvastatin (0.04 μM)
Nc1ncc2ncn(CC3(OCP(=O)(O)O)CC3)c2n1 [Besifovir] | 0.9124
O=C(O)CCNC(=O)c1ccccc1 [Betamipron] | 0.7936

Same assay, conditions: NCI-H292 cells, complete media; FDA drug library screen (TABLE 2)

SMILES | Complete Media
CNCCc1ccccn1.CS(=O)(=O)O.CS(=O)(=O)O [Betahistine (mesylate)] | 1.025
CC(C)(Oc1ccc(CCNC(=O)c2ccc(Cl)cc2)cc1)C(=O)O [Bezafibrate] | 1.024

Same assay, conditions: NCI-H292 cells, complete media; cell growth value in FDA drug screen

SMILES | Complete Media
Nc1ncc2ncn(CC3(OCP(=O)(O)O)CC3)c2n1 [Besifovir] | 0.9846
O=C(O)CCNC(=O)c1ccccc1 [Betamipron] | 0.9075

Same assay, conditions: NCI-H292 cells, drug in cholesterol-free media with simvastatin 0.04 μM

SMILES | Cholesterol-free media + simvastatin (0.04 μM)
CNCCc1ccccn1 [Betahistine (dihydrochloride)] | 1.02
O=C(NCc1c(F)cc(F)cc1F)c1cn2c(c(O)c1=O)C(=O)N1[C@H]3CC[C@H](C3)O[C@@H]1C2 [Bictegravir] | 1.109

Same assay, conditions: NCI-H292 cells, drug in complete media

SMILES | Complete Media
CNCCc1ccccn1 [Betahistine (dihydrochloride)] | 0.8007
O=C(NCc1c(F)cc(F)cc1F)c1cn2c(c(O)c1=O)C(=O)N1[C@H]3CC[C@H](C3)O[C@@H]1C2 [Bictegravir] | 0.9083

Same assay, conditions: complete media minus cholesterol-free media + simvastatin (0.04 μM); >0 enhanced anti-cancer activity, about 0 neutral, <0 antagonist

SMILES | Difference
CNCCc1ccccn1.CS(=O)(=O)O.CS(=O)(=O)O [Betahistine (mesylate)] | 0.01
CC(C)(Oc1ccc(CCNC(=O)c2ccc(Cl)cc2)cc1)C(=O)O [Bezafibrate] | −0.01

Same assay, conditions: complete media minus cholesterol-free media + simvastatin; >0 enhanced anti-cancer activity, about 0 neutral, <0 antagonist

SMILES | Difference
Nc1ncc2ncn(CC3(OCP(=O)(O)O)CC3)c2n1 [Besifovir] | 0.07
O=C(O)CCNC(=O)c1ccccc1 [Betamipron] | 0.11
c1ccc(-c2ccc(C(c3ccccc3)n3ccnc3)cc2)cc1 (stereo not shown) [Bifonazole] | 0.35

Same assay, conditions: complete media minus cholesterol-free media + simvastatin; […]

SMILES | Difference
COc1cc2c3cc1Oc1c(OC)c(OC)cc4c1[C@@H](Cc1ccc(O)c(c1)Oc1ccc(cc1)C[C@@H]3N(C)CC2)N(C)CC4 [Berbamine (dihydrochloride)] | 0.75

Same assay, conditions: complete media vs cholesterol-free media + simvastatin (0.04 μM); >0 enhanced anti-cancer activity, about 0 neutral, <0 antagonist

SMILES | Difference
CC(C)C[C@H](NC(=O)[C@@H](O)[C@H](N)Cc1ccccc1)C(=O)O [Bestatin (hydrochloride)] | −0.15
CC(C)C[C@H](NC(=O)[C@@H](O)[C@H](N)Cc1ccccc1)C(=O)O [Bestatin] | −0.27
CNCCc1ccccn1 [Betahistine (dihydrochloride)] | −0.22
CC(C[N+](C)(C)C)OC(N)=O.[Cl-] (stereo not shown) [Bethanechol (chloride)] | −0.35
COc1ccc(NC(=O)c2ccc(C(=N)N(C)C)cc2)c(C(=O)Nc2ccc(Cl)cn2)c1 [Betrixaban] | −0.68
COc1ccc(CCNCC(O)COc2cccc(C)c2)cc1OC (stereo not shown) [Bevantolol (hydrochloride)] | −0.45
O=C(NCc1c(F)cc(F)cc1F)c1cn2c(c(O)c1=O)C(=O)N1[C@H]3CC[C@H](C3)O[C@@H]1C2 [Bictegravir] | −0.20
COC(=O)c1cc(OC)c2c(c1-c1c(CO)cc(OC)c3c1OCO3)OCO2 [Bicyclol] | −0.31

Same assay, conditions: complete media vs cholesterol-free media + simvastatin (0.04 μM); […]

SMILES | Difference
COC(=O)c1cc(OC)c2c(c1-c1c(C(=O)OC)cc(OC)c3c1OCO3)OCO2 [Bifendate] | −0.10
